# Results as given in PubChem BioAssay (NCI).
# Where “and” joins values, the source holds several entries; their conditions need not be identical. Equal values may be shown once.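 Compound exposure: 48 hours, 5 concentrations, 96-well plates. The concentration for 50% growth inhibition is given as GI50. The concentration for full growth arrest is given as TGI.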
# Legend:
# Experiment in all cases: NCI tumour cell line growth inhibition, 48 h
# K-562 leukemia = tested on: K-562 leukemia
# 786-0 renal = tested on: 786-0 renal
# MCF7 breast = tested on: MCF7 breast
# HCC-2998 colon = tested on: HCC-2998 colon
# HOP-92 NSCLC = tested on: HOP-92 NSCLC
# OVCAR-3 ovarian = tested on: OVCAR-3 ovarian
# CCRF-CEM leukemia = tested on: CCRF-CEM leukemia
# NCI-H226 lung = tested on: NCI-H226 lung
# MDA-MB-231 breast = tested on: MDA-MB-231 breast
# BT-549 breast = tested on: BT-549 breast
SMILES,GI50 (K-562 leukemia),TGI (K-562 leukemia),GI50 (786-0 renal),TGI (786-0 renal),GI50 (MCF7 breast),TGI (MCF7 breast),GI50 (HCC-2998 colon),TGI (HCC-2998 colon),GI50 (HOP-92 NSCLC),TGI (OVCAR-3 ovarian),GI50 (CCRF-CEM leukemia),TGI (CCRF-CEM leukemia),GI50 (NCI-H226 lung),TGI (HOP-92 NSCLC),GI50 (MDA-MB-231 breast),TGI (MDA-MB-231 breast),GI50 (BT-549 breast),TGI (BT-549 breast),GI50 (OVCAR-3 ovarian),TGI (NCI-H226 lung)
COc1cccc(-c2cc(=O)c3cc(N4CCOCC4)ccc3[nH]2)c1,0.0267 µM,0.179 µM,0.0602 µM,> 100 µM,0.0275 µM,20.1 µM,0.0236 µM,0.433 µM and 0.0581 µM,0.246 µM,0.0412 µM,0.0218 µM,0.111 µM,0.0806 µM,,,,,,,
CC(C)(C)C(=O)Nc1cccc2oc(-c3ccccc3)cc12,,> 100 µM,,> 100 µM,,,,> 100 µM,,> 100 µM,,> 100 µM,,96.4 µM,,,,,,
N#CC1=C(N)NC(=S)NC12Nc1ccccc1S2 (centres undefined),30.3 µM,> 100 µM,> 100 µM,> 100 µM,,,33 µM,> 100 µM,22.4 µM,38.1 µM,15.1 µM,53.3 µM,31.2 µM,> 100 µM,16.4 µM,70.6 µM,18.6 µM,53 µM,14.6 µM,> 100 µM
O=C(O)c1cc(=O)cc(C(=O)O)o1,> 100 µM,> 100 µM,> 100 µM,> 100 µM,> 100 µM,> 100 µM,> 100 µM,> 100 µM,> 100 µM,> 100 µM,> 100 µM,> 100 µM,> 100 µM,> 100 µM,,,> 100 µM,> 100 µM,> 100 µM,> 100 µM
CN(C)CCC(CCN(C)C)=NO,,> 100 µM,,> 100 µM,,,,> 100 µM,,> 100 µM,,> 100 µM,,,,,,,,
COc1ccc2c3c1OC1C(OC)(OC)C=C[C@@]4(Br)[C@@H](C2)N(CC2CC2)CC[C@]314 (some centres undefined),,> 100 µM,,> 100 µM,,> 100 µM,,> 100 µM,,> 100 µM,,> 100 µM,,83.9 µM,,> 100 µM,,,,> 100 µM
CCOc1ccc(/C=C/c2cc(OC)c(OC)c(OC)c2)cc1,,> 100 µM,,37.4 µM,,,,6.32 µM,,1.88 µM,,> 66.8 µM,,93.8 µM,,,,,,> 26.1 µM
Cc1cc(N2CCCCC2)nc(NC2CCCC(Nc3ccnc4cc(Cl)ccc34)C2)n1 (centres undefined),0.316 µM,1.23 µM,1.27 µM,2.59 µM,,,1.75 µM,3.4 µM,,3.42 µM,1.48 µM,10.6 µM,1.99 µM,,,,1.58 µM,3.07 µM,1.63 µM,3.9 µM
CC(C)(C)c1cc(CCCCCCCC2(CCCCCCCc3cc(C(C)(C)C)cc(C(C)(C)C)c3)OC(COCCOCCCCCC#N)C(COCCOCCCCCC#N)O2)cc(C(C)(C)C)c1 (centres undefined),,> 100 µM,,> 100 µM,,,,> 100 µM,,> 100 µM,,> 100 µM,,> 100 µM,,,,,,> 100 µM
NS(=O)(=O)c1ccc(NC(=O)Cc2nc3ccccc3s2)cc1,,59.4 µM,,33.5 µM,,,,35.8 µM,,30.4 µM,,47.3 µM,,29.8 µM,,,,,,33 µM
O=C(OCCCl)C1OC(n2cc(F)c(=O)[nH]c2=O)CC1O (centres undefined),,> 100 µM,,> 100 µM,,,,> 100 µM,,> 100 µM,,> 100 µM,,> 100 µM,,,,,,> 100 µM
CC1=NN(C(=O)Nc2ccc(Cl)cc2)C(=O)C2CCC(=O)N12 (centres undefined),,> 100 µM,,> 100 µM,,,,> 100 µM,,> 100 µM,,> 100 µM,,> 100 µM,,,,,,
Cc1[nH]c2ccccc2c1CC/C(=N\Nc1ccccc1)c1ccccc1,,> 100 µM,,> 100 µM,,,,> 100 µM,,> 100 µM,,> 100 µM,,,,,,,,> 100 µM
C[C@@H](NS(=O)(=O)c1ccc(NC(=O)c2ccccc2)cc1)C(=O)O,,> 100 µM,,> 100 µM,,,,> 100 µM,,> 100 µM,,> 100 µM,,> 100 µM,,,,,,
O=C1C(=C([O-])c2ccccc2)C(=O)c2ccccc21.O=C1C(=C([O-])c2ccccc2)C(=O)c2ccccc21.[Mn+2],,,> 100 µM,> 100 µM,,,> 100 µM,> 100 µM,,> 100 µM,,,32 µM,,,,,,40.5 µM,> 100 µM
Cc1ccc(NC(=O)CC/C(CC(=O)C(C)(C)C)=N\NC(=O)C[n+]2ccccc2)cc1C,,> 100 µM,,> 100 µM,,,,> 100 µM,,> 100 µM,,> 100 µM,,> 100 µM,,,,,,> 100 µM
